The results in this text go back to patent publication US12678447B2, “Combinations of RIPK1- and IKK-inhibitors for the prevention or treatment of immune diseases” (Universität zu Köln, priority 2017, dated 2026).

“Also recorded” adds a separate entry of the source.

This assay concerns bone marrow derived macrophages (BMDMs). The assay can be described thus: LPS-induced IL-1β secretion in BMDMs treated with IKK2 inhibitors (ELISA). It is filed as cell-based, mouse. The method, then: Bone marrow was isolated from the tibiae and femurs of one WT and one Ripk1^D138N/D138N mouse (6-7 week old). Bone marrow from one leg of each mouse was immediately frozen Bone marrow cells from the other leg were spun down at 1200 rpm, for 5 min and seeded in 15 cm^2 non-treated cell culture plates in 20 ml of medium containing 10 ng/ml M-CSF. Cells were allowed to differentiate for six days and subsequently adherent BMDMs were lifted, counted and seeded at a density of 2×10^5 cells/well in a 48 well plate. The day after, cells were pretreated with different concentrations of the IKK2 inhibitors for 30 min before stimulation with 100 ng/ml LPS in a total volume of 250 μl. Each experimental condition was assayed in triplicate. 20-24 h later supernatants were removed, cleared from floating cells and were frozen until cytokine measurements. IL-1β concentration was determined with a specific ELISA (eBioscience) following the manufacturer's instructions.
For the experiment with Nec1 the frozen bone marrow cells were used. After thawing, macrophages were differentiated as described above for fresh bone marrow cells. Necrostatin-1 (Nec-1) was added together with the IKK2 inhibitors during the 30 min pretreatment BMDMs were stimulated with LPS for 20-24 h and supernatants were kept for ELISA measurements. […]
Background: An ELISA detects its analyte on a solid surface through an enzyme-linked reagent.

As to `CN1C(=O)C(Cc2c[nH]c3ccccc23)NC1=S` (centres unmarked) [Necrostatin-1, 5-(1H-indo1-3-ylmethyl)-3-methyl-2-thioxo-4-imidazolidinone], the “amount of secreted IL-1β (LPS-induced, in BMDMs treated with IKK2 inhibitors)” value (Nec1 added together with IKK2 inhibitors during 30 min pretreatment, 100 ng/ml LPS for 20-24 h, FIG. 1B) is reported as “strongly diminished the LPS-induced production of IL-1β; also recorded: strongly reduced the amount of secreted IL-1β”.
As to `NC(=O)Nc1sc(-c2ccc(F)cc2)cc1C(N)=O` [TPCA-1], the “IL-1β secretion upon LPS stimulation” value (WT BMDMs pretreated 30 min with IKK2 inhibitor, then 100 ng/ml LPS for 20-24 h, IL-1β ELISA of supernatant) was “greater potency”.
